Test results reported in patent publication US11213055B2, “Fermentate compositions and methods of making and using the same” (Third Wave Bioactives, LLC, priority 2017, dated 2022).
Several values for one entry are separate records, joined by “and”; a condition that tells them apart may be missing. Equal values may be shown once.

Assays:
[1] = tested on: Zygosaccharomyces rouxii strain, Y-229, and Torulaspora delbruckii strain, Y-866; assay: yeast challenge in dark chocolate sauce, yeast enumeration; assay type: cell-based
Protocol: (§1) The treatments were prepared by dissolving the spray dried fermentate in 15 ml sterile water and then mixed into the sauce using sterile hand whisks. One of the L. reuteri fermentate treatments was incubated for 30 minutes in a water bath set at 60° C. prior to addition to the chocolate sauce to determine how heat would affect the treatment since traditional manufacturing of the chocolate sauce includes a heating step.
(§2) All jars were then inoculated with a dual yeast challenge of Zygosaccharomyces rouxii strain, Y-229, and Torulaspora delbruckii strain, Y-866, which were both obtained from the ARS NRRL Culture Collection. The yeast strains were grown in Potato Dextrose broth at 32° C. overnight, then diluted in sterile water to approximately 2.0×10^5 CFU/ml. The two strains were then combined and 5 ml of the combination culture was added to each jar to provide a challenge dose of approximately 1.0×10^3 CFU/ml.
(§3) A 10-gram sample was removed from each jar immediately after challenge inoculation to analyze the pH and the initial yeast count in duplicate on Potato Dextrose Agar acidified with 10% Tartaric Acid (PDA4-TA) as well as the total aerobic plate count (APC) in duplicate on Tryptic Soy Agar (TSA). Once solidified, the PDA+TA plates were incubated at 28° C. for 72 hours and the TSA plates were incubated at 32° C. for 48 hours, then counted to determine CFU/g. The jars were kept at room temperature (˜20-22° C.) in a dark cabinet for the first 21 days, then moved to an incubator set at 28° C. for the duration of the study. On days 4, 7, 11, 14, 18, 21, 28, 35, 49, 56, 63, 94, 109, and 124, a 10-gram sample was removed from each jar to analyze the change in pH, as well as the yeast and APC levels in duplicate as described above.

[2] = tested on: total aerobic plate count (APC); assay: total aerobic plate count (APC) in dark chocolate sauce; assay type: cell-based
Protocol: as §1, §2, §3

For `C/C=C/C=C/C(=O)[O-].[K+]` [Potassium sorbate], the “day at which resurgence of yeast started” value ([1]; dark chocolate sauce) was 49 days, the “day at which yeast levels were no longer detectable (<10 CFU/g)” value ([1]; dark chocolate sauce) was 35 days and the “Enumeration of yeast in dark chocolate sauce, AVG” value (“Enumeration of yeast … AVG” below) ([1]; day 0) was 2.00E+03 CFU/g. For the same molecule, the “Enumeration of yeast in dark chocolate sauce, duplicate counts” value (“Enumeration of yeast … duplicate counts” below) ([1]; day 0) was 1.73E+03 CFU/g and 2.27E+03 CFU/g, the “Enumeration of yeast … AVG” value ([1]; day 4) was 1.23E+03 CFU/g and the “Enumeration of yeast … duplicate counts” value ([1]; day 4) was 9.49E+02 CFU/g and 1.51E+03 CFU/g. The “Enumeration of yeast … AVG” value ([1]; day 7) was 9.08E+02 CFU/g, the “Enumeration of yeast … duplicate counts” value ([1]; day 7) was 6.43E+02 CFU/g and 1.17E+03 CFU/g and the “Enumeration of yeast … AVG” value ([1]; day 11) was 1.02E+03 CFU/g. For the same molecule, the “Enumeration of yeast … duplicate counts” value ([1]; day 11) was 1.10E+03 CFU/g and 9.43E+02 CFU/g, the “Enumeration of yeast … AVG” value ([1]; day 14) was 5.48E-02 CFU/g and the “Enumeration of yeast … duplicate counts” value ([1]; day 14) was 4.99E+02 CFU/g and 5.98E+02 CFU/g. For the same molecule, the “Enumeration of yeast … AVG” value ([1]; day 18) was 3.30E+02 CFU/g, the “Enumeration of yeast … AVG” value ([1]; day 21) was 2.06E+02 CFU/g and the “Enumeration of yeast … AVG” value ([1]; day 28) was 1.26E+02 CFU/g. For the same molecule, the “Enumeration of yeast … duplicate counts” value ([1]; day 28) was 1.51E+02 CFU/g and 1.00E+02 CFU/g, the “Enumeration of yeast … AVG” value ([1]; day 35) was less than 10 CFU/g and the “Enumeration of yeast … duplicate counts” value ([1]; day 35) was less than 10 CFU/g. The “Enumeration of yeast … AVG” value ([1]; day 49) was 1.53E+01 CFU/g, the “Enumeration of yeast … AVG” value ([1]; day 56) was less than 10 CFU/g and the “Enumeration of yeast … duplicate counts” value ([1]; day 56) was less than 10 CFU/g. The “Enumeration of yeast … AVG” value ([1]; day 63) was less than 10 CFU/g, the “Enumeration of yeast … duplicate counts” value ([1]; day 63) was less than 10 CFU/g and the “Enumeration of yeast … AVG” value ([1]; day 94) was 3.71E+02 CFU/g. For the same molecule, the “Enumeration of yeast … duplicate counts” value ([1]; day 94) was 3.07E+02 CFU/g and 4.35E+02 CFU/g, the “Enumeration of yeast … AVG” value ([1]; day 109) was 1.50E+02 CFU/g and the “Enumeration of yeast … AVG” value ([1]; day 124) was 1.21E+04 CFU/g. The “Enumeration of yeast … duplicate counts” value ([1]; day 124) was 1.25E+04 CFU/g and 1.17E+04 CFU/g, the “APC, CFU/g (duplicate counts)” value ([2]; day 0) was 2.83E+03 CFU/g and 2.94E+03 CFU/g and the “APC, AVG” value ([2]; day 0, average of duplicate counts) was 2.89E+03 CFU/g. For the same molecule, the “APC, CFU/g (duplicate counts)” value ([2]; day 4) was 2.57E+03 CFU/g and 2.96E+03 CFU/g, the “APC, AVG” value ([2]; day 4, average of duplicate counts) was 2.77E+03 CFU/g and the “APC, CFU/g (duplicate counts)” value ([2]; day 7) was 2.47E+03 CFU/g and 3.12E+03 CFU/g. The “APC, AVG” value ([2]; day 7, average of duplicate counts) was 2.79E+03 CFU/g, the “APC, CFU/g (duplicate counts)” value ([2]; day 11) was 2.24E+03 CFU/g and 2.49E+03 CFU/g and the “APC, AVG” value ([2]; day 11, average of duplicate counts) was 2.36E+03 CFU/g. For the same molecule, the “APC, CFU/g (duplicate counts)” value ([2]; day 14) was 1.59E+03 CFU/g and 2.13E+03 CFU/g, the “APC, AVG” value ([2]; day 14, average of duplicate counts) was 1.86E+03 CFU/g and the “APC, CFU/g (duplicate counts)” value ([2]; day 18) was 1.44E+03 CFU/g and 1.56E+03 CFU/g. For the same molecule, the “APC, AVG” value ([2]; day 18, average of duplicate counts) was 1.50E+03 CFU/g, the “APC, CFU/g (duplicate counts)” value ([2]; day 21) was 1.13E+03 CFU/g and 1.31E+03 CFU/g and the “APC, AVG” value ([2]; day 21, average of duplicate counts) was 1.22E+03 CFU/g. For the same molecule, the “APC, CFU/g (duplicate counts)” value ([2]; day 28) was 8.53E+02 CFU/g and 9.84E+02 CFU/g, the “APC, AVG” value ([2]; day 28, average of duplicate counts) was 9.19E+02 CFU/g and the “APC, CFU/g (duplicate counts)” value ([2]; day 35) was 7.22E+02 CFU/g and 6.82E+02 CFU/g. For the same molecule, the “APC, AVG” value ([2]; day 35, average of duplicate counts) was 7.02E+02 CFU/g, the “APC, CFU/g (duplicate counts)” value ([2]; day 49) was 6.85E+02 CFU/g and 6.14E+02 CFU/g and the “APC, AVG” value ([2]; day 49, average of duplicate counts) was 6.50E+02 CFU/g. For the same molecule, the “APC, CFU/g (duplicate counts)” value ([2]; day 56) was 5.72E+02 CFU/g and 3.71E+02 CFU/g, the “APC, AVG” value ([2]; day 56, average of duplicate counts) was 4.71E+02 CFU/g and the “APC, CFU/g (duplicate counts)” value ([2]; day 63) was 5.89E+02 CFU/g and 6.79E+02 CFU/g. The “APC, AVG” value ([2]; day 63, average of duplicate counts) was 6.34E+02 CFU/g, the “APC, CFU/g (duplicate counts)” value ([2]; day 94) was 5.54E+02 CFU/g and 7.62E+02 CFU/g and the “APC, AVG” value ([2]; day 94, average of duplicate counts) was 6.58E+02 CFU/g. For the same molecule, the “APC, CFU/g (duplicate counts)” value ([2]; day 109) was 6.36E+02 CFU/g and 5.52E+02 CFU/g, the “APC, AVG” value ([2]; day 109, average of duplicate counts) was 5.94E+02 CFU/g and the “APC, CFU/g (duplicate counts)” value ([2]; day 124) was 2.52E+02 CFU/g and 3.78E+02 CFU/g. The “APC, AVG” value ([2]; day 124, average of duplicate counts) was 3.15E+02 CFU/g.
